Experimental data: patent US20080161247A1, “Synergistic composition for modulating activity of substrate analogs for NAD+, NADP+, NADH or NADPH dependent enzymes and process thereof” (priority 2006, published 2008)
Where two headings read alike, the source gives them in different places.

Experiments:
P. falciparum culture = test: Growth inhibition assay, [3H] hypoxanthine incorporation; assay type: cell-based, Plasmodium falciparum
From the text: Culture media with or without inhibitors was changed daily. Parasites were synchronized at the ring stage with 5% D-sorbitol for all and the cultures were pooled at ring or trophozoite stage with 12-15% parasitemia. Free parasites were released from the red blood cells with 0.15% saponin.
The growth of P. falciparum was quantified by measuring the incorporation of [^3H] hypoxanthine.

[1] = target: T1, Plasmodium falciparum enoyl-Acyl carrier protein (ACP) reductase (PfENR) (Plasmodium falciparum, UniProt Q9BH77); test: biochemical; conditions: for Ki: Dixon plot
T1 sequence (Q9BH77 22-432): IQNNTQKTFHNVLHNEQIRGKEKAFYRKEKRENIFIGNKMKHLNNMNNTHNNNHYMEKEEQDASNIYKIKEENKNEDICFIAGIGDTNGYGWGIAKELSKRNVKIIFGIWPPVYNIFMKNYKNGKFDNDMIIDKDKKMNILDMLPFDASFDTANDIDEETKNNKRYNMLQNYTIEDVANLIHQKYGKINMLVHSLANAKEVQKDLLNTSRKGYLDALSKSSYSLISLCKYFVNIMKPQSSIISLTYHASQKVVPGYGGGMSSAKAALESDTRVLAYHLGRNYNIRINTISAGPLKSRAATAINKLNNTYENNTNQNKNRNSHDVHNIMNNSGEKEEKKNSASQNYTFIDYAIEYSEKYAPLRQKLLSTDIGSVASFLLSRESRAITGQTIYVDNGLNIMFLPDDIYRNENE
Experimental: Enzyme assays and inhibition studies were performed on a UV-Vis spectrophotometer (Jasco) at 25° C. in 20 mM Tris/HCl pH 7.4 containing 150 mM NaCl [13, 14]. The standard reaction mixture of 100 μl contained 200 μM crotonoyl-CoA, 100 μM NADH and 30 nM PfENR. All the inhibitors were dissolved in DMSO. 1% V/V DMSO was used in the standard reaction mixture. The reaction proceeds by reduction of crotonoyl-CoA to butyl-CoA with the oxidation of NADH to NAD^+ which is monitored at 340 nm (□∈^M340=6220 M−1 cm−1).
IC50 values of the tea catechins and polyphenolic compounds for PfENR were determined by plotting the percent inhibition of PfENR at various concentrations of inhibitory compounds. […] The percent activity thus calculated was plotted against log of concentration of respective catechins. The data was analyzed by nonlinear regression method using sigmoidal model and IC50 values for each catechin was calculated from the sigmoidal curve.
The sigmoidal curve indicates the best fit for the data.
Ki of individual catechins with respect to NADH and crotonoyl-CoA were determined in separate experiments. […] All the data were analyzed by Dixon plot [8].
All the data of individual experiments were repeated thrice and the mean value was taken for data analysis. The Ki values were determined for each experiment from the X-intercept of the Dixon plot [8].
The data were plotted using the following Dixon equations for competitive and uncompetitive kinetics, respectively.

PfENR [2] = target: T2, PfENR (Plasmodium falciparum, UniProt Q9BH77); assay type: biochemical; conditions: triclosan with PfENR in presence of the catechin
T2 construct: The overexpression of PfENR was carried out [22]; made in house
Experimental: The reaction was started by the addition of 50 nM of PfENR.
The reaction was monitored at 340 nm and the formation of (NAD^+) was plotted as a function of time using equation 3 to get the dissociation constant by non-linear regression analysis of the data.
Progress curves gave the value of kobs and the k5 or association rate constants were determined by fitting the values of kobs with experimentally determined k6 values in equation 4.
The relationship between Ki, k5, k6 and kobs is described by equation 4.
The overall inhibition constant Ki* is calculated by equation 5.

[3] = target: T3, human aldose reductase (ALR2) (Homo sapiens, UniProt P15121); test: Fluorescence quenching dissociation constants with aldose reductase; assay type: binding
T3 construct: hexa-His (cleaved yes); made in house; host or cells: E. coli BL-21(DE3)
Experimental: The cloning of human ALR2 gene was done as described before with slight modification. In brief, the open reading frame of the human AR2 gene (Accession GenBank/EMBL Data Bank number J05017) was amplified by the polymerase chain reaction from its cDNA and cloned into the T7 RNA polymerase-based vector pET28a(+) vector (Novagen). The positive clone was sequenced and then transformed into BL-21(DE3) cells for expression. The culture (5 L) was grown at 37° C. till OD600 of 0.8, induced by 1 mM IPTG and grown further at 37° C. for next 3 h. The cells were pelleted, sonicated and the clear supernatant was loaded to Ni-NTA resin. The purified hexa-His tagged human AR2 was subjected to thrombin cleavage and loaded […]. The His-tag cleaved AR2 was further loaded on DEAE Sephadex A-50 column (Pharmacia) and eluted with an NaCl gradient. The purity of the final enzyme preparation was checked on 12% SDS-PAGE.
Ki in all the four cased were calculated strictly using equations mentioned in Example 11.

[4] = system: fatty acid synthesis in P. falciparum cultures; test: Incorporation of [14C] acetate into fatty acids in P. falciparum cultures; assay type: cell-based; conditions: Plasmodium falciparum
Experimental: Fatty acid synthesis in P. falciparum cultures and the effect of a 2′-dihydroxyphenyl ether indicated in formula 1 and 2 with or without flavonoid was evaluated by incorporating [14C] acetate into fatty acids [Surolia and Surolia Nature Medicine, (2001) 7, 167-173].

PfENR [5] = target: T2, PfENR; assay type: binding; conditions: 1 μM [3H]EGCG
Experimental: Binding studies of [^3H] […] Briefly, for gel filtration chromatography, 2 ml Sephadex G-25 column was packed and equilibrated with the reaction buffer. For each run 50 μl of the reaction mixture was loaded and 20 fractions of 100 μl were collected at 0.25 ml/min flow rate. All the fractions were spotted on Whatman 3 filter paper and dried before taking the counts. In the filter binding assay method, the reaction mixtures were directly applied on the activated Polyvinylidene difluoride (PVDF) membrane fixed in a filtration assembly. The filters were washed with 200 μl of reaction buffer and dried. Dried filters were transferred to vials containing 5 ml scintillation fluid and the radioactivity measured using a Hewlett Packard liquid scintillation counter.
To check the binding of [^3H] […] The concentration of [^3H]
[^3H] […] (FIG. 4d) Double reciprocal plot of the same data is shown in the inset.
The binding constants for the above experiments were determined from saturation plots and by Scatchard plot or double reciprocal plot using equation 2a and 2b described under evaluation section.

PfENR [6] = target: T2, PfENR; assay type: binding; conditions: equation 7
Experimental: The excitation and emission monochromator slit widths were adjusted at 3 nm. All the reactions were performed in 3 ml quartz cuvette with constant stirring at 25° C. For the binding studies, 4 μM PfENR was incubated with different tea compounds at their saturating concentrations in 20 mM tris and 150 mM NaCl, pH 7.4, excited at 295 nm and change in the fluorescence intensity at the emission maximum of PfENR (340 nm) was recorded.
For tight binding inhibitors k6 can be considered negligible at the early onset of inhibition. So, k5 can be directly calculated from the following equation [13],
The samples were excited at 290 nm and the emission was recorded at 340 nm.
Before calculating Ki and k5 from fluorescence data, the corrections for inner filter effect were made using equation 8.

P. berghei = test: Four day suppressive test, survival of P. berghei infected mice; assay type: in vivo, P. berghei in Balb/c mice; conditions: P. berghei infected Balb/c mice; triclosan 20 mg/kg, EGCG 30 mg/kg, 4 days
Experimental: Randomly bred male Balb/c mice, 6 in numbers, weighing 22-25 grams were inoculated intravenously with 10 million P. berghei parasitized red blood cells. […] Giemsa-stained blood smears for 5 days and thereafter was prepared from the infected animals to assess percentage parasitemia. The survival of the mice was monitored for the following week.

E. coli O55:B5 = test: Survival of mice post bacterial infection; assay type: in vivo, E. coli in BALB/c mice; conditions: BALB/c mice, 10^7 CFU E. coli O55:B5, D-galactosamine primed; triclosan 40 mg/kg, EGCG 50 mg/kg
Experimental: Agents and Chemother. 12, 3859-3866 (2003) which is detailed below:—
Third group of animals received injections of both Triclosnan and ECGC as above. Controlled group was injected PBS and/or ethanol (500 μl).
For each experiment 6 BALB/c male mice, 6-9 week of age per group were used.
Infection of animals by bacteria: The animals were injected i.p or s.c with 0.4 ml of pyrogen free saline containing 10^7 CFU of bacteria (E. coli O55:B5) and primed with D-galactosamine (300 mg/kg of body weight); (Galanos at al. (1979) Proc. Natl. Acad. Sci. USA, 76, 5939-5943).
The mice was monitored for survival on an hourly basis.

[7] = Plasmodium falciparum, Erythrocyte, growth of malaria culture in red blood cells, read-out: IC50 on P. falciparum culture
[8] = Ki in presence of TCL [nM], Ki of the catechin at 50 nM and 100 nM triclosan
[9] = Ki w.r.t. NADH [μM], competitive, NADH 50, 100, 200 μM, crotonoyl-CoA 200 μM
[10] = Ki w.r.t. crotonoyl-CoA [μM], uncompetitive, NADH 100 μM
[11] = binary complex, read-out: Ki with ALR2

Compound	IC50 (P. falciparum culture; [7]) [nM]	IC50 [1] [nM]	Ki [1, 8] [nM]	Ki [1, 9] [nM]	Ki [1, 10] [nM]	Association rate constant k5 of triclosan (PfENR [2])	other results
O=c1c(O)c(-c2ccc(O)c(O)c2)oc2cc(O)cc(O)c12 [Quercetin, quercetin]	20700	2500 ± 78	22 ± 0.85	1090 ± 89	473 ± 11	3.1 ± 0.0786 [10^−3]s^−1	–
O=CC1CCCCC1 [1-Cyclohexylaldehyde]	–	–	–	–	–	–	Ki [3, 11]: 330000 ± 45000 nM; Ki ([3]; read-out: Ki value in the presence of quercetin, 2 μM quercetin preincubated): 14.1 ± 3.1 nM
(−) epigallocatechin gallate [EGCG]	–	–	–	–	–	–	IC50 (P. falciparum culture; growth of malaria culture in red blood cells, read-out: IC50 on P. falciparum culture): 191000 nM
CCN(CC)CCCC(C)Nc1ccnc2cc(Cl)ccc12 (stereo not shown) [chloroquine, reference compound]	–	–	–	–	–	–	IC50 (P. falciparum culture; Plasmodium falciparum, read-out: IC50 for chloroquine, strain MP-14): 300 nM; IC50 (P. falciparum culture; Plasmodium falciparum, read-out: IC50 of chloroquine, strain FCK2): 18 nM
O=C(/C=C/c1ccc(O)c(O)c1)c1ccc(O)cc1O [Buteine, butein]	49700	12500 ± 670	14 ± 0.57	5500 ± 100	2970 ± 77	2.1 ± 0.108 [10^−3]s^−1	–
O=C(O[C@@H]1Cc2c(O)cc(O)cc2O[C@@H]1c1ccc(O)c(O)c1)c1cc(O)c(O)c(O)c1 [ECG, (−) epicatechin gallate]	–	500 ± 16	16 ± 0.45	291 ± 7.6	102 ± 4.6	6.3 ± 0.135 [10^−3]s^−1	IC50 (P. falciparum culture; Plasmodium falciparum, Erythrocyte, read-out: IC50 on P. falciparum culture): 4700 nM
O=CC(O)CO (stereo not shown) [Glyceraldehyde, glyceraldehyde]	–	–	–	–	–	–	fold decrease of Kd of glyceraldehyde by quercetin ([3]; 2 μM quercetin): more than 10 fold; Kd ([3]; Kd of glyceraldehyde in the presence of quercetin, 2 μM quercetin): 40000 nM; Ki [3, 11]: 510000 ± 54000 nM; Kd ([3]; without quercetin, read-out: Kd of glyceraldehyde with aldose reductase): 510000 nM
Oc1cc(Cl)ccc1Oc1ccc(Cl)cc1Cl [Triclosan, 5-chloro-2-(2,4-dichlorophenoxy)phenol]	–	–	–	–	–	–	inhibition at 9 µM [4]: 90%; Association constant of triclosan, double reciprocal plot (PfENR [5]): 14 ± 0.77 µM⁻¹; Association constant of triclosan, saturation kinetics (PfENR [5]): 22.18 ± 1.7 µM⁻¹; k5 of triclosan in presence of EGCG from slow decrease of fluorescence (PfENR [6]): 0.0072±0.84×10^−5 s^−1; Mice surviving from a group of 6 on Day 6 (P. berghei): 3 ± 1; Mice surviving from a group of 6 on Day 12 (P. berghei): 1 ± 1; Survival Time (E. coli O55:B5): 45 ± 6 h
Oc1cc(O)c2c(c1)O[C@H](c1cc(O)c(O)c(O)c1)[C@H](O)C2 [EGC, (−) epigallocatechin]	211000	7000 ± 85	17.6 ± 0.67	3750 ± 54	2000 ± 78	5.4 ± 0.097 [10^−3]s^−1	–
